Reference: patent US12390472B2 (SUZHOU SINOVENT PHARMACEUTICALS CO., LTD., priority 2018, dated 2025)

How the values were obtained:
EZH2 enzyme complex = EZH2 enzyme complex (Homo sapiens (Human), UniProt Q15910); assay: Test on EZH2 inhibitory activity (TR-FRET); format: biochemical; details: EZH2 enzyme complex 25 ng/uL, histone H3 peptide 4 uM, SAM 2 uM, 300 min; read-out: IC50 of EZH2 inhibition
WSU-DLCL2 = assay: Methylated lysine of histone-H3 (H3K27Me3) detection by ELISA, WSU-DLCL2 cells; format: cell-based; details: Homo sapiens, WSUDLCL2, 168 h; WSU-DLCL2, 7 days treatment, H3K27Me3 normalized to total histone-3; read-out: IC50 of cell methylation, WSU-DLCL2
Method: (§1) The operations for adherent cells and suspension cells cultured in 96-well plates were slightly different after they had been treated with compound (4-fold dilution 20 uM-0.009 nM, 3 duplicate wells) for 7 days, and the operations are summarized as follows: For adherent cells, after discarding the medium, 75 uL of 1-fold hypotonic lysis buffer (10 mM Tris-HCl, pH 7.5, containing halt protease inhibitor and PMSF with a final concentration of 1 mM) was added; the plate was frozen at −80° C. for at least 1 h or overnight; once the plate was taken away from the −80° C. environment, 120 uL (to a final volume of about 195 uL) of 1-fold hypotonic lysis buffer (containing protease inhibitor) was added, and the plate was thawed at room temperature and shaken for 2 min for mixing; and 8 uL (to a final volume of about 203 uL) of 2.5 M NaCl was added to each well to a final NaCl concentration of 100 mM and then the plate was shaken for an additional 2 min for mixing.
(§2) For suspension cells (final volume of medium was 100 uL/well), 25 uL of 5-fold hypotonic lysis buffer (50 mM Tris-HCl, pH 7.5, containing halt protease inhibitor and PMSF with a final concentration of 1 mM) was added, and the plate was frozen at −80° C. for at least 1 h or overnight. Once the plate was taken away from the −80° C. environment, 20 uL of 0.625 M NaCl was added to each well to a final NaCl concentration of about 100 mM, and the mixture was mixed well.
(§3) 75 uL or 100 uL of sample (with duplicate wells provided) was added to two 96-well ELISA plates (ThermoFisher Scientific; Immulon 4HBX 3885) and the plates were coated with total protein lysate and incubated overnight at 4° C. 50 uL of lysate was retained for protein quantitation if necessary. The sealing of the plates must be ensured. The plates were washed twice with 300 uL of 1×PBST (PBS containing 0.05% Tween 20) per well. Each well was blocked with 300 uL of dilution (PBS+2% BSA+0.05% Tween 20), incubated for 2 h at room temperature, and washed twice with 1×PBST. Primary antibodies were diluted with a dilution solution containing 1% BSA+0.05% Tween 20. 75-100 uL of anti-H3K27Me3 antibody (CST; 9733; 50% glycerol stock, 1:1,000) or anti-total histone-3 antibody (Abcam; ab1791; 50% glycerol stock, 1:10,000) was added to each well. The plates were incubated for 90 min at room temperature or incubated overnight at 4° C. The plates were washed three times with 1×PBST. 75-100 uL of anti-Rb-IgG-HRP secondary antibody (Cell Signaling Technology; 7074) was added per well, 1:2000 diluted secondary antibody for anti-H3K 27Me3 plate and 1:6000 diluted secondary antibody for anti-histone total histone-3 plate. The plates were incubated at room temperature for 90 min. The plate assayed with anti-histone-3 antibody was used to normalize the data for the corresponding plate assayed with anti-H3K 27me3. The plates must be washed at least three times with 1×PBST after primary or secondary antibody incubation. The plates were assayed by adding 75-100 uL of 3,3′,5,5′-tetramethylbenzidine substrate (CST or ThermoFisher Scientific; TMBS) per well and incubated away from light for 30 min at 37° C. The reaction was terminated by adding 100 uL of 0.5 M H2SO4 per well. The absorbance was read at 450 nm. Curve fitting was performed using Graph Pad program.

Pfeiffer = assay: Methylated lysine of histone-H3 (H3K27Me3) detection by ELISA, Pfeiffer cells; format: cell-based, human; details: Homo sapiens, 168 h, 7 days treatment, H3K27Me3 normalized to total histone-3, read-out: IC50 of cell methylation, Pfeiffer
Method: as §1, §2, §3

EZH2 enzyme complex, sequence (Q15910 whole entry): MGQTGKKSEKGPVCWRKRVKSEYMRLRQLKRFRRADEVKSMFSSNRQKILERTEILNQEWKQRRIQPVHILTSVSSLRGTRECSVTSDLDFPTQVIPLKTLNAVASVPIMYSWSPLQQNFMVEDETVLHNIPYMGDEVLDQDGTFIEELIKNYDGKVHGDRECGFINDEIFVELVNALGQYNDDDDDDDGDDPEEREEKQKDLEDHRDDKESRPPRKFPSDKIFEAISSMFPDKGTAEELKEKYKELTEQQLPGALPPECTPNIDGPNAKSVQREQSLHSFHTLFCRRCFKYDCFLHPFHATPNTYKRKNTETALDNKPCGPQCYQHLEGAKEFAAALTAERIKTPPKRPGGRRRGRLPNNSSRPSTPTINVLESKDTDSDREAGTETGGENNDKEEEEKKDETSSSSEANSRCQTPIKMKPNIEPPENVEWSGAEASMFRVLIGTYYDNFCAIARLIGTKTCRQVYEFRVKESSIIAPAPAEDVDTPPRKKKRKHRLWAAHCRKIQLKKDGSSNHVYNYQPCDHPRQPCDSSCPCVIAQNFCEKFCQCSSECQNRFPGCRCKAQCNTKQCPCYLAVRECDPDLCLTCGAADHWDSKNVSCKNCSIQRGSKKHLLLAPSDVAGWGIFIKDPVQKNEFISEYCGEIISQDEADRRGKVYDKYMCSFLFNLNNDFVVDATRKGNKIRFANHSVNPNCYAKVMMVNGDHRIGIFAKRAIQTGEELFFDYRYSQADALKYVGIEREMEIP
EZH2 enzyme complex, sequence (O75530 whole entry partner): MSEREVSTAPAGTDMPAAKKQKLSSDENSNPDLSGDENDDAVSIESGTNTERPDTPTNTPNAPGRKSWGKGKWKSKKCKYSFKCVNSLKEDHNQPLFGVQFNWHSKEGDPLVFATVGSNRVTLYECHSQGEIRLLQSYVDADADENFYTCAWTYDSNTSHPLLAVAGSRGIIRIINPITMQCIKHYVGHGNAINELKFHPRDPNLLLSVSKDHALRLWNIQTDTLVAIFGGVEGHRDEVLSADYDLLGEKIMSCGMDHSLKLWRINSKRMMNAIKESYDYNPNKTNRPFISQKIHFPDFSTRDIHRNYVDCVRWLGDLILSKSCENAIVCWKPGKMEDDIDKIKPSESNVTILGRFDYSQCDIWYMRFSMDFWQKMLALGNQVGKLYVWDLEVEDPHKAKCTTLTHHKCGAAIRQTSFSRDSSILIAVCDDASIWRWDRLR
EZH2 enzyme complex, sequence (Q15022 whole entry partner): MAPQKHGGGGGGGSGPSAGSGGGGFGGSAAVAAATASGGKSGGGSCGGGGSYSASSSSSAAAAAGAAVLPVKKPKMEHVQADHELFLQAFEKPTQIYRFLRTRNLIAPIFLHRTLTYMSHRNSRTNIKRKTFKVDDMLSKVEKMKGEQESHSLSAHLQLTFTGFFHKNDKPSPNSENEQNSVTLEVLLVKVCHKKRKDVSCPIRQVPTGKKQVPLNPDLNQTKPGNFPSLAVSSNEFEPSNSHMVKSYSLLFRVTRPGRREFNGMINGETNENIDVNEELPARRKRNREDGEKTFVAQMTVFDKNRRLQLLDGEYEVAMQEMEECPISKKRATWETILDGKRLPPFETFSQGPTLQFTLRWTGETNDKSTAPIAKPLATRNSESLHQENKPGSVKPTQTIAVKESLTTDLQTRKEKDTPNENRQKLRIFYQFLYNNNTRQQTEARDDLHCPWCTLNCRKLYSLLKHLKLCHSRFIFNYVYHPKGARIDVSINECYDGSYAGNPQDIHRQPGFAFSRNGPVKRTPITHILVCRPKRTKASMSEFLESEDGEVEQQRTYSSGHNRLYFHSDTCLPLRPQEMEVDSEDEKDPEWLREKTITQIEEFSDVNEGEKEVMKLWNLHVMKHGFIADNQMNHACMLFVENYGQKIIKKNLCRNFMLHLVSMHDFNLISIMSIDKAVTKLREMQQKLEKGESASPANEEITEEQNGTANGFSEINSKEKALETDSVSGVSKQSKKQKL

| SMILES | IC50 (EZH2 enzyme complex) [nM] | IC50 (WSU-DLCL2) [nM] | IC50 (Pfeiffer) [nM] |
| --- | --- | --- | --- |
| CCN(c1cc(OC2CCC2)cc(C(=O)NCc2c(C)cc(C)[nH]c2=O)c1C)C1CCOCC1 [Example 1, 5-cyclobutoxy-N-((4,6-dimethyl-2-oxo-1,2-dihydropyridin-3-yl)methyl)-3-(ethyl(tetrahydro-2H-pyran-4-yl)amino)-2-methylbenzamide] | 10 to 100 | 50 to 500 | < 50 |
| CCN(c1cc(OC2CC(C)C2)cc(C(=O)NCc2c(C)cc(C)[nH]c2=O)c1C)C1CCOCC1 (stereo not shown) [Example 2, N-((4,6-dimethyl-2-oxo-1,2-dihydropyridin-3-yl)methyl)-3-(ethyl(tetrahydro-2H-pyran-4-yl)amino)-2-methyl-5-(3-methylcyclobutoxy)benzamide] | 10 to 100 | 500 to 1000 | 50 to 500 |
| CCN(c1cc(OC2CC(F)(F)C2)cc(C(=O)NCc2c(C)cc(C)[nH]c2=O)c1C)C1CCOCC1 [Example 3, 5-(3,3-difluorocyclobutoxy)-N-((4,6-dimethyl-2-oxo-1,2-dihydropyridin-3-yl)methyl)-3-(ethyl(tetrahydro-2H-pyran-4-yl)amino)-2-methylbenzamide] | 10 to 100 | 50 to 500 | < 50 |
| CCN(c1cc(O[C@H]2C[C@@H](CN3CCOCC3)C2)cc(C(=O)NCc2c(C)cc(C)[nH]c2=O)c1C)C1CCOCC1 [Example 6, N-((4,6-dimethyl-2-oxo-1,2-dihydropyridin-3-yl)methyl)-3-(ethyl(tetrahydro-2H-pyran-4-yl)amino)-2-methyl-5-(cis-3-(morpholinylmethyl)cyclobutoxy)benzamide] | 10 to 100 | 50 to 500 | < 50 |
| CCN(c1cc(O[C@H]2C[C@H](CN3CCOCC3)C2)cc(C(=O)NCc2c(C)cc(C)[nH]c2=O)c1C)C1CCOCC1 [Example 7, N-((4,6-dimethyl-2-oxo-1,2-dihydropyridin-3-yl)methyl)-3-(ethyl(tetrahydro-2H-pyran-4-yl)amino)-2-methyl-5-(trans-3-(morpholinylmethyl)cyclobutoxy)benzamide] | 10 to 100 | 50 to 500 | < 50 |
| CCN(c1cc(SC2CCC2)cc(C(=O)NCc2c(C)cc(C)[nH]c2=O)c1C)C1CCOCC1 [Example 8, 5-(cyclobutylthio)-N-((4,6-dimethyl-2-oxo-1,2-dihydropyridin-3-yl)methyl)-3-(ethyl(tetrahydro-2H-pyran-4-yl)amino)-2-methylbenzamide] | 10 to 100 | > 1000 | 50 to 500 |
| CCN(c1cc([S+]([O-])C2CCC2)cc(C(=O)NCc2c(C)cc(C)[nH]c2=O)c1C)C1CCOCC1 (stereo not shown) [Example 9, 5-(cyclobutylsulfinyl)-N-((4,6-dimethyl-2-oxo-1,2-dihydropyridin-3-yl)methyl)-3-(ethyl(tetrahydro-2H-pyran-4-yl)amino)-2-methylbenzamide] | 100 to 1000 | 500 to 1000 | 500 to 1000 |
| CCN(c1cc(S(=O)(=O)C2CCC2)cc(C(=O)NCc2c(C)cc(C)[nH]c2=O)c1C)C1CCOCC1 [Example 10, 5-(cyclobutylsulfonyl)-N-((4,6-dimethyl-2-oxo-1,2-dihydropyridin-3-yl)methyl)-3-(ethyl(tetrahydro-2H-pyran-4-yl)amino)-2-methylbenzamide] | 100 to 1000 | > 1000 | 500 to 1000 |
| CCN(c1cc(OC2CCC2)cc(C(=O)NCc2c(C)cc(C)[nH]c2=O)c1Cl)C1CCOCC1 [Example 11, 2-chloro-5-cyclobutoxy-N-((4,6-dimethyl-2-oxo-1,2-dihydropyridin-3-yl)methyl)-3-(ethyl(tetrahydro-2H-pyran-4-yl)amino) benzamide] | 10 to 100 | 50 to 500 | 50 to 500 |
| CCN(c1cc(OC2CC(C)(C)C2)cc(C(=O)NCc2c(C)cc(C)[nH]c2=O)c1C)C1CCOCC1 [Example 12, N-((4,6-dimethyl-2-oxo-1,2-dihydropyridin-3-yl)methyl)-5-(3,3-dimethylcyclobutoxy)-3-(ethyl(tetrahydro-2H-pyran-4-yl)amino)-2-methylbenzamide] | 10 to 100 | > 1000 | 50 to 500 |
| CCN(c1cc(OC2CC(C(=O)N3CCOCC3)C2)cc(C(=O)NCc2c(C)cc(C)[nH]c2=O)c1C)C1CCOCC1 (stereo not shown) [Example 13, N-((4,6-dimethyl-2-oxo-1,2-dihydropyridin-3-yl)methyl)-3-(ethyl(tetrahydro-2H-pyran-4-yl)amino)-2-methyl-5-(3-(morpholine-4-carbonyl)cyclobutoxy)benzamide] | 10 to 100 | 50 to 500 | < 50 |
| CCN(c1cc(C2CC2)cc(C(=O)NCc2c(C)cc(C)[nH]c2=O)c1C)C1CCOCC1 [Example 14, 5-cyclopropyl-N-((4,6-dimethyl-2-oxo-1,2-dihydropyridin-3-yl)methyl)-3-(ethyl(tetrahydro-2H-pyran-4-yl)amino)-2-methylbenzamide] | – | 50 to 500 | < 50 |
| CCN(c1cc(O[C@H]2C[C@@H](N3C[C@@H](C)O[C@@H](C)C3)C2)cc(C(=O)NCc2c(C)cc(C)[nH]c2=O)c1C)[C@H]1C[C@@H](C)O[C@@H](C)C1 [Example 33] | 100 to 1000 | – | 50 to 500 |
| CCN(c1cc(O[C@H]2C[C@H](N3C[C@@H](C)O[C@@H](C)C3)C2)cc(C(=O)NCc2c(C)cc(C)[nH]c2=O)c1C)[C@H]1CC[C@H](N(C)CCOC)CC1 [Example 52, N-((4,6-dimethyl-2-oxo-1,2-dihydropyridin-3-yl)methyl)-5-(trans-3-(cis-2,6-dimethylmorpholinyl)cyclobutoxy)-3-(ethyl(trans-4-((2-methoxyethyl)(methyl)amino)cyclohexyl)amino)-2-methylbenzamide] | 10 to 100 | 500 to 1000 | – |
| CCN(c1cc(O[C@H]2C[C@H](N3CC4CC(C3)O4)C2)cc(C(=O)NCc2c(C)cc(C)[nH]c2=O)c1Cl)C1CCOCC1 [Example 55] | 10 to 100 | 50 to 500 | – |
| CCN(c1cc(C2CC2CN2CCN(C(=O)OC)CC2)cc(C(=O)NCc2c(C)cc(C)[nH]c2=O)c1C)C1CCOCC1 (stereo not shown) [Example 80, methyl 4-((2-(3-(((4,6-dimethyl-2-oxo-1,2-dihydropyridin-3-yl)methyl)carbamoyl)-5-(ethyl(tetrahydro-2H-pyran-4-yl)amino)-4-methylphenyl)cyclopropyl)methyl)piperazine-1-carboxylate] | 10 to 100 | < 50 | – |
| CCN(c1cc(C2CC2CN2CCOCC2)cc(C(=O)NCc2c(C)cc(C)[nH]c2=O)c1C)[C@H]1CC[C@H](N(C)CCOC)CC1 (stereo partly drawn) [Example 82, N-((4,6-dimethyl-2-oxo-1,2-dihydropyridin-3-yl)methyl)-3-(ethyl(trans-4-((2-methoxyethyl)(methyl)amino)cyclohexyl)amino)-2-methyl-5-(2-(morpholinylmethyl)cyclopropyl)benzamide] | 10 to 100 | 50 to 500 | – |
| CCN(c1cc(C2CC2CN2CCNCC2)cc(C(=O)NCc2c(C)cc(C)[nH]c2=O)c1Cl)C1CCOCC1 (stereo not shown) [Example 83, 2-chloro-N-((4,6-dimethyl-2-oxo-1,2-dihydropyridin-3-yl)methyl)-3-(ethyl(tetrahydro-2H-pyran-4-yl)amino)-5-(2-(piperazin-1-ylmethyl)cyclopropyl)benzamide] | 10 to 100 | > 1000 | – |
| CCN(c1cc(C2CC2CN2C[C@@H](C)O[C@@H](C)C2)cc(C(=O)NCc2c(C)cc(C)[nH]c2=O)c1Cl)C1CCOCC1 (stereo partly drawn) [Example 85, 2-chloro-N-((4,6-dimethyl-2-oxo-1,2-dihydropyridin-3-yl)methyl)-5-(2-(((2S,6R)-2,6-dimethylmorpholinyl)methyl)cyclopropyl)-3-(ethyl(tetrahydro-2H-pyran-4-yl)amino)benzamide] | 100 to 1000 | 500 to 1000 | – |
